In patent publication US9527828B2, “Method for expanding hematopoietic stem cells using heterocyclic compound” (Nissan Chemical Industries, Ltd., priority 2007, dated 2016):

Columns and labels:
CD34^+CD38^− cells [1] = experiment: Expansion of CD34+CD38− cells from human cord blood-derived CD34+ cells (Example 2); type: cell-based; conditions: Homo sapiens, 168 h, 1 μg/mL compound, 50 ng/mL SCF, StemSpan SFEM, 7 days; based on number of CD34+CD38− cells in the absence of compound; read-out: Expansion efficiency
In short: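 Human cord blood CD34+ cells (10000 cells/mL) were cultured 7 days at 37 °C, 5% CO2 in StemSpan SFEM with 50 ng/mL SCF and compound at 1 μg/mL final (0.1% DMSO). Viable cells were counted by trypan blue and the CD34+CD38− fraction by flow cytometry with PI exclusion; expansion is relative to no-compound culture, graded A (≥10), B (5–<10), C (3–<5).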

[2] = system: HPP-CFU colony forming cells; experiment: Blood cell colony forming assay, HPP-CFC colonies (Example 5); type: cell-based, human; conditions: liquid cultures of Example 2 (1 μg/mL compound), 500 cells/dish, MethoCult GF H4435, 12 days, averaged
Method: The effects of Compounds No. 1, No. 2, and No. 4 of the present invention on hematopoietic progenitor cells were measured by blood cell colony forming assay. The liquid cell cultures obtained in Example 2 were poured into 3.5-cm Petri dishes with MethoCult GF H4435 culture medium (Stemcell Technologies) at 500 cells/dish and incubated in a CO2 incubator (5% CO2, 37° C.) for 12 days. The number of HPP-CFC colonies in each plate was counted under a microscope routinely. The assay was carried out at least in duplicate, and the numbers of HPP-CFC colonies were averaged.

CD34^+CD38^− cells [3] = experiment: Expansion of CD34+CD38− cells using cord blood-derived CD34+CD38− cells (Example 6); type: cell-based, human; conditions: 1 μg/mL compound, CD34+CD38− starting cells, 50 ng/mL SCF, 7 days; based on number of CD34+CD38− cells in the presence of 10 ng/mL TPO
Method: The human cord blood-derived CD34^+CD38^− cells collected in Example 1 were plated on a 24-well plate (TPP) (from 3000 to 10000 cells/1 mL/well). As the culture medium, StemSpan SFEM (Stemcell Technologies) containing 50 ng/mL SCF (Peprotech) was used, and TPO (Peprotech) or Compound No. 1, No. 2, No. 4 or No. 6 in dimethyl sulfoxide in an amount of 0.1% (v/v) was added to a final concentration of […] or 1 μg/mL, respectively. After the cells were incubated in liquid culture at 37° C. for 7 days in a CO2 incubator (5% CO2), the number of CD34^+CD38^− cells was calculated in the same manner as in Example 2.
The expansion efficiencies in the presence of 1 μg/mL of the compounds based on the number of CD34^+CD38^− cells in the presence of 10 ng/mL TPO are shown in Table 5.

SRC = experiment: Transplantation of cell culture into NOD/SCID mice, human CD45+ cells in bone marrow (Example 7); type: in vivo; conditions: cells cultured with 1 μg/mL compound vs 10 ng/mL TPO; three weeks after transplantation (FIG. 3)
Method: Cultured cells obtained in the same manner as in Example 2 in the presence of TPO (Peprotech) at a final concentration of 10 ng/mL or in the presence of Compound No. 1 or No. 4 at a final concentration of 1 μg/mL was transplanted into at least three 7- to 8-week-old NOD/SCID mice by tail vein injection at 4 to 5×10^4 cells/mouse in terms of the initial number of CD34^+ cells after a sublethal dose of irradiation (2.75 to 3 Gy). Three weeks after the transplantation, the mice were killed, and the bone marrow cells were collected from both thighbones. Subsequently, the bone marrow cells were stained with a human CD45 antibody (APC, Becton, Dickinson and Company), then washed with PBS(−) containing 2% (v/v) FBS and stained with propidium iodide (Sigma-Aldrich Japan) added to a final concentration of 5 μg/mL. The stained cells were analyzed with a flow cytometer JSAN (Bay Bioscience) to determined the proportion of human CD45^+ cells in the bone marrow cells.
The proportions of human CD45^+ cells from the cell cultures incubated in the presence of 1 μg/mL of Compound No. 1 or No. 4 based on the proportion of human CD45^+ cells from the cell culture incubated in the presence of 10 ng/mL TPO are shown in FIG. 3.

CD34^+NGFR^+ cells = experiment: Transfection of cord blood CD34+ cells with NGFR gene, CD34+NGFR+ cell expansion (Example 10); design: species or system human; conditions: TPO 20 ng/mL or compound 0.3 μg/mL, 20 ng/mL SCF and Flt-3; based on number of CD34+NGFR+ cells in the absence of them
Method: The human cord blood-derived CD34^+ cells collected or purchased in Example 1 were plated on 3 cm-Petri dishes (TPP) (100000 cells/3 ml/dish). As the culture medium, StemSpan SFEM (Stemcell Technologies) containing 20 ng/ml SCF (Peprotech) and 20 ng/mL Flt-3 (Wako Pure Chemical Industries) was used, and TPO (Peprotech) or Compound No. 1 or No. 4 in dimethyl sulfoxide in an amount of 0.1% (v/v) was added to a final concentration of 20 ng/mL or 0.3 μg/mL, respectively. A negative control culture was incubated in the absence of TPO and the compounds.
After the cells were incubated in liquid culture at 37° C. for 24 hours in a CO2 incubator (5% CO2), 2 ml of the culture medium was sucked out, and 2 ml of the solution of the retrovirus for expression of NGFR prepared in Example 7 (containing 5 μg/mL protamine sulfate (Sigma-Aldrich Japan), 20 ng/ml SCF (Peprotech) and 20 ng/mL Flt-3 (Wako Pure Chemical Industries)) was added. TPO (Peprotech) or Compound No. 1 or No. 4 in dimethyl sulfoxide in an amount of 0.1% (v/v) was further added to a final concentration of […] or 0.3 μg/mL, respectively, and centrifugation at 2000 g was carried out at 32° C. for 30 minutes. Then, the cells were incubated in liquid culture under the same conditions as mentioned above for 24 hours, 2 ml of the culture medium was sucked out, 2 ml of the same solution of the retrovirus for expression of NGFR was added together with TPO or either compound, and centrifugation at 2000 g was carried out at 32° C. for 30 minutes. […] The cells were incubated in liquid culture under the same conditions as mentioned above for 24 hours, and the number of viable cells was counted by trypan blue assay (GIBCO).
The number of CD34^+ cells carrying NGFR introduced via the retrovirus vector (the number of CD34^+NGFR^+ cells) was calculated as follows. […] The stained cells were analyzed with JSAN (Bay Bioscience) to determined the proportion of CD34^+NGFR^+ cells, which was multiplied by the number of viable cells to calculate the number of CD34^+NGFR^+ cells. […]

Row | Compound | fold induction at 1 µg/mL (CD34^+CD38^− cells [1]) | Number of HPP-CFC colonies [2] | Expansion efficiency (CD34^+CD38^− cells [3]) | SRC expanding effect (proportion of human CD45+ cells in bone marrow) (SRC) | Expansion efficiency (CD34^+NGFR^+ cells)
1 | C/C(=N\NC(=O)c1ccc(C(=O)NCc2cn(C)cn2)s1)c1csc(-c2ccc(Cl)c(Cl)c2)c1O [Compound No. 1] | ≥ 10 | 41 | 1.9 | excellent SRC expanding effect | 9.8
2 | C/C(=N\NC(=O)c1ccc(C(=O)NCc2ccc(C(N)=O)cc2)s1)c1csc(-c2ccc(Cl)c(Cl)c2)c1O [Compound No. 4] | ≥ 10 | 45 | 1.9 | excellent SRC expanding effect | 12.5
3 | C/C(=N\NC(=O)c1ccc(C(=O)NCc2cc(C)n(C)n2)s1)c1csc(-c2ccc(Cl)c(Cl)c2)c1O [compound 2] | ≥ 10 | 35 | 2.7 |  | 
4 | C/C(=N\NC(=O)c1ccc(C(=O)Nc2cscn2)s1)c1csc(-c2ccc(Br)cc2)c1O [compound 6] | ≥ 10 |  | 1.4 |  | 
5 | thrombopoietin [TPO] |  |  |  |  | 7.7
